This passage reports inhibition and IC50 results from ChEMBL document CHEMBL1141073, “E-ring modified steroids as novel potent inhibitors of 17beta-hydroxysteroid dehydrogenase type 1” (J Med Chem, 2005).

The structures appear in SMILES notation.

Usually inhibition stands for how much of the control response was suppressed. Read a high inhibition as a strong effect. A word on the IC50: it is the concentration that inhibits the measured activity by half. Read a low IC50 as greater potency in that assay.

What all share (type): cell-based
Assay [1] deals with T1, 17-beta-hydroxysteroid dehydrogenase type 2 (Homo sapiens) (UniProt P37059).
T1 sequence (whole entry): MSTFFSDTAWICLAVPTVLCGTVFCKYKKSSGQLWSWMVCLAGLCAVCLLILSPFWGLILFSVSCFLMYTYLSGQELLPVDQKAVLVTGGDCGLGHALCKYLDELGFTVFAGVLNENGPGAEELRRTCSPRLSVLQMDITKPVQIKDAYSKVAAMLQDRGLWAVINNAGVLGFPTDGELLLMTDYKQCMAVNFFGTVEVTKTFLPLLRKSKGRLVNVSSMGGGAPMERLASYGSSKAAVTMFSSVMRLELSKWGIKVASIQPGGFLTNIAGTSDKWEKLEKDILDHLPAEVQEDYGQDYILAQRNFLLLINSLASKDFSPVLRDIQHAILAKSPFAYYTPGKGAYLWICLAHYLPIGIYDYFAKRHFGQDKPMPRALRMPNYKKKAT
Kind of assay: Inhibitory activity at 10 uM against 17-beta-hydroxysteroid dehydrogenase type 2 in MDAMB-231 human breast cancer cells using 2 nM [3H]estradiol. As to conditions: Cancer cell lines.

The target of assay [2] is T2, 17-beta-hydroxysteroid dehydrogenase type 1 (Homo sapiens) (UniProt P14061).
T2 sequence (whole entry): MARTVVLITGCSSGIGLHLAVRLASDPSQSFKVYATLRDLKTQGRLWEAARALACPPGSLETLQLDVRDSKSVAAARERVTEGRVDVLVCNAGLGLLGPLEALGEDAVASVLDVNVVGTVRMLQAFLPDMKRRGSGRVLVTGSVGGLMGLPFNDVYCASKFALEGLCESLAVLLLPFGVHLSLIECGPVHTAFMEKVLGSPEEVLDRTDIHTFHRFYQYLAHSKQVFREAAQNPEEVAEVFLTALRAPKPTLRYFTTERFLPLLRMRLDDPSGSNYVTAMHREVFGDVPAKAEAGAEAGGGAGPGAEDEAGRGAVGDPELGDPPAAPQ
Kind of assay: Inhibitory activity at 10 uM against 17-beta-hydroxysteroid dehydrogenase type 1 expressed in T47D human breast cancer cells using 2 nM [3H]estrone.

The target of assay [3] is T3, 17-beta-hydroxysteroid dehydrogenase type 1 (Homo sapiens, UniProt P14061).
T3 sequence (P14061 whole entry): T2 sequence (whole entry)
The assay is described as follows: Inhibition of 17-beta-hydroxysteroid dehydrogenase type 1 expressed in T47D human breast cancer cells using 2 nM [3H]estrone.

For `C[C@]12CCC3c4ccc(O)cc4CCC3C1Cc1cccnc12` (stereo not given in full), the inhibition in assay [1] turned out to be 34%; in assay [2], 78%.

`Cc1cnc(CNC(=O)c2[nH]nc3c2CC2C4CCc5cc(O)ccc5C4CC[C@]32C)cn1` (stereo not given in full): the inhibition in assay [1] stood at 61%; in assay [2], 80%.

Turning to `CC1(C#N)C[C@H]2C3CCc4cc(O)ccc4[C@H]3CC[C@]2(C)C1=O` (single isomer, unassigned), the figures for the inhibition in assay [1] and in assay [2] were 12% and 85%, respectively.

Consider `CCN(C)C(=O)c1[nH]nc2c1CC1C3CCc4cc(O)ccc4C3CC[C@]21C` (stereo not given in full), for which the inhibition turned out to be 6% in assay [1] and 88% in assay [2].

`C[C@]12CCC3c4ccc(O)cc4CCC3C1Cc1cn(CCC#N)nc12` (stereo not given in full): the inhibition worked out at 44% in assay [1] and 95% in assay [2].

`COCCn1cc2c(n1)[C@@]1(C)CCC3c4ccc(O)cc4CCC3C1C2` (stereo not given in full): the values for the inhibition in assay [1] and in assay [2] were 48% and 95%, respectively.

On to `C[C@]12CC[C@@H]3c4ccc(O)cc4CCC3[C@@H]1C/C(=N/O)C2=O` (single isomer, unassigned), for which the inhibition was found to be 5% in assay [1] and 95% in assay [2]. Further, the IC50 in assay [3] stood at 1100 nM.

For the compound `C[C@]12CCC3c4ccc(O)cc4CCC3C1Cc1c(CO)n[nH]c12` (stereo not given in full), the inhibition is 1% in assay [1] and 94% in assay [2].

Take `COCCn1ncc2c1[C@@]1(C)CCC3c4ccc(O)cc4CCC3C1C2` (stereo not given in full): the values for the inhibition in assay [1] and in assay [2] were 55% and 83%, respectively.

Take `C[C@]12CCC3c4ccc(O)cc4CCC3C1Cc1c2n[nH]c1C(=O)NCc1ccccn1` (stereo not given in full): the inhibition in assay [1] came to 9%; in assay [2], 93%.

In the case of `C[C@]12CC[C@@H]3c4ccc(O)cc4CCC3[C@@H]1CC(=N/O)/C2=N\O` (single isomer, unassigned), the inhibition was determined as 2% in assay [1] and 55% in assay [2].

Regarding `C[C@]12CC[C@@H]3c4ccc(O)cc4CCC3[C@@H]1CC(C#N)C2=O` (single isomer, unassigned), the values for the inhibition in assay [1] and in assay [2] were 17% and 77%, respectively. The compound further yielded a half-inhibitory concentration (IC50) in assay [3] of 10000 nM.

Consider `CNC(=O)c1[nH]nc2c1CC1C3CCc4cc(O)ccc4C3CC[C@]21C` (stereo not given in full), for which the inhibition is 14% in assay [1] and 62% in assay [2].

Turning to `C[C@]12CCC3c4ccc(O)cc4CCC3C1Cc1c2n[nH]c1C(=O)NCC1CCCO1` (stereo not given in full), the inhibition in assay [1] came to 4%; in assay [2] it was 87%.

For `Cn1cccc1CNC(=O)c1[nH]nc2c1CC1C3CCc4cc(O)ccc4C3CC[C@]21C` (stereo not given in full), the inhibition in assay [1] turned out to be 4%; in assay [2], 89%.

For the compound `C[C@]12CCC3c4ccc(O)cc4CCC3C1Cc1c[nH]nc12` (stereo not given in full), the values for the inhibition in assay [1] and in assay [2] were 32% and 97%, respectively. The compound also displayed an IC50 in assay [3] of 180 nM.

Turning to `CN1CCN(CNC(=O)c2[nH]nc3c2CC2C4CCc5cc(O)ccc5C4CC[C@]32C)CC1` (stereo not given in full), the inhibition in assay [1] was 1%; in assay [2], 50%.

Turning to `CC(C)Cn1cc2c(n1)[C@@]1(C)CCC3c4ccc(O)cc4CCC3C1C2` (stereo not given in full), the inhibition in assay [1] was 61%; in assay [2] it was 77%.

Regarding `C[C@]12CCC3c4ccc(O)cc4CCC3C1Cc1c2n[nH]c1C(=O)NCCc1cccnc1` (stereo not given in full), the inhibition in assay [1] was 3%; in assay [2], 99%.

For the compound `COC(=O)Cn1cc2c(n1)[C@@]1(C)CCC3c4ccc(O)cc4CCC3C1C2` (stereo not given in full), the inhibition was 19% in assay [1] and 95% in assay [2].

As to `C[C@]12CCC3c4ccc(O)cc4CCC3C1Cc1c2n[nH]c1C(=O)NCc1cccnc1` (stereo not given in full), the inhibition in assay [1] came out at 28%; in assay [2], 92%.

`C[C@]12CCC3c4ccc(O)cc4CCC3C1Cc1c2n[nH]c1C(=O)O` (stereo not given in full): the results for the inhibition in assay [1] and in assay [2] were 6% and 32%, respectively.

In the case of `CCOC(=O)C(=O)C1=C(O)[C@@]2(C)CCC3c4ccc(O)cc4CCC3C2C1` (stereo not given in full), the inhibition in assay [1] stood at 7%; in assay [2], 75%.

With `Cn1cc2c(n1)[C@@]1(C)CCC3c4ccc(O)cc4CCC3C1C2` (stereo not given in full), the inhibition amounted to 24% in assay [1] and 94% in assay [2].

For the compound `CC(C)Cn1ncc2c1[C@@]1(C)CCC3c4ccc(O)cc4CCC3C1C2` (stereo not given in full), the inhibition in assay [1] is 44%; in assay [2] it was 70%.

In the case of `CCOC(=O)c1[nH]nc2c1CC1C3CCc4cc(O)ccc4C3CC[C@]21C` (stereo not given in full), the inhibition was found to be 7% in assay [1] and 94% in assay [2].

As for `Cn1ncc2c1[C@@]1(C)CCC3c4ccc(O)cc4CCC3C1C2` (stereo not given in full), the inhibition worked out at 32% in assay [1] and 43% in assay [2].

On to `CC1(C)C[C@H]2C3CCc4cc(O)ccc4[C@H]3CC[C@]2(C)C1=O` (single isomer, unassigned), for which the inhibition in assay [1] came out at 35%; in assay [2] it was 95%.

As for `C[C@]12CCC3c4ccc(O)cc4CCC3C1CC(C(=O)C(F)(F)F)=C2O` (stereo not given in full), the figures for the inhibition in assay [1] and in assay [2] were 1.5% and 78%, respectively.

For `CC(C)NC(=O)c1[nH]nc2c1CC1C3CCc4cc(O)ccc4C3CC[C@]21C` (stereo not given in full), the inhibition turned out to be 0% in assay [1] and 57% in assay [2].

As for `C[C@]12CCC3c4ccc(O)cc4CCC3C1CC(C=O)=C2O` (stereo not given in full), the results for the inhibition in assay [1] and in assay [2] were 15% and 97%, respectively. This compound had an IC50 in assay [3] of 110 nM.

`COC(=O)Cn1ncc2c1[C@@]1(C)CCC3c4ccc(O)cc4CCC3C1C2` (stereo not given in full): the inhibition in assay [1] worked out at 30%; in assay [2], 79%.

Turning to `C[C@]12CCC3c4ccc(O)cc4CCC3C1Cc1c2n[nH]c1C(F)(F)F` (stereo not given in full), the inhibition in assay [1] was determined as 36%; in assay [2], 75%.
